According to patent US20100298242A1, “MASKING THE TASTE OF COMPOSITONS CONTAINING SALT” (priority 2006, published 2010):
Entries after “also recorded” stand apart in the source; their conditions may differ. Like-named read-outs stand apart in the source and are kept apart here. Where a SMILES comes first, the peptide text is derived from it.

Columns and labels:
[1] = Acceptable daily intake (ADI) value and highest daily doses calculated from it; details: child weighing 10 kg; for Highest dose/sachet: four sachets a day
From the text: An E number is provided for each sweetener and an ADI value is defined. The “acceptable daily intake” (ADI) value gives the quantity in milligrams per kilogram of body weight (KG) of the substance, which can be taken daily for life without incurring damage.
ADI values (acceptable daily intake) were established for the sweeteners. Using the ADI values, maximum concentrations can be calculated, which may be applied daily by a substance without incurring damage for life. The sweetener addition to the ORS solutions is limited by the ADI values. According to the specialist information for preparation C, the therapeutic maximum dose is four sachets a day for babies and small children. […] The calculation relates to the bodyweight of a child weighing 10 kg.

[2] = cited from earlier work; for ADI value/kg KG: acceptable daily intake per kg body weight
[3] = Organoleptic check of ORS solutions with a single sweetener; assay type: in vivo; details: 200 mg Na-cyclamate or quantity calculated to equal sweetening power per dose
Procedure: Permitted sweeteners were used for a taste test on ORS solutions. Different concentrations of 10 to 200 mg of the sweetener Na-cyclamate were weighed into the solids mixture. Na-cyclamate is a sodium salt like NaCl. In comparison to other sweeteners, it has a low sweetening power. It was to be found out whether the salty taste of the ORS solution can be masked as a function of concentration by Na-cyclamate. The powder mixtures were weighed out according to the composition of the WHO and dissolved in water according to the instruction.
After organoleptic checking, no salty taste was perceived for the ORS solution with a concentration of 200 mg Na-cyclamate.
The sweeteners were calculated to the standard concentration of the Na-cyclamate. The different sweetening power values of the sweeteners were used as the reference variable.
The calculated quantities of sweeteners were added to the ORS powder mixtures and dissolved in water. The following organoleptic test took place.

[4] = cited from earlier work
[5] = in vivo; cited from earlier work
[6] = Organoleptic test of ORS solutions with sugars and sugar alcohols; assay type: in vivo
From the text: Further sweetening agents were included in a taste testing. An addition of sugars and sugar alcohols has a substantially stronger effect on the total osmolarity of an ORS solution than the addition of sweeteners. […] In addition to the total osmolarity of the effective constituents of the ORS solutions, the values are outside the recommended limits of the WHO recommendations. The quantities to be added are not to be recommended either in relation to the promotion of caries and a laxative effective. […] A taste test was nevertheless carried out with the sugars and sugar alcohols. Complete dissolution took place in water and an organoleptic test took place with the calculated quantities. […] The concentrations of substances were reduced to such an extent that the maximum limit of the osmolarity of 311 mosmol/l was adhered to. […] The addition of sweeteners is to be preferred in each case with regard to side-effects, osmolarity and a complete masking of the salty taste.

[7] = neotam as aspartame derivative; cited from earlier work
bladder carcinomas = details: cited from earlier work
[8] = ranking of the three sweeteners
Procedure: In order to use as few sweeteners as possible, two sweeteners from Table 3 are combined with one another in each case. The result is six combinations. […] As a result, the concentration with 40 mg for aspartame was only selected to be half as high as the maximally permissible daily highest limit. In order to ensure a comparability with the other sweeteners, the concentration of aspartame was also retained for the remaining combinations.
Proceeding from the tested concentration ratios of the combinations it was investigated whether the same masking of taste can be achieved by a reduction in dose of the sweeteners.

[9] = relative to saccharose = 1, sweeteners permitted in the European Union
[10] = sugars and sugar alcohols table
[11] = calculated quantities (equal sweetness to 200 mg Na-cyclamate)
[12] = concentrations reduced so that maximum osmolarity of 311 mosmol/l is adhered to

In the case of CC1=CC(=O)NS(=O)(=O)O1 [Acesulfame potassium], the “Highest daily dose/10 kg BW” value [1] is given as 150 mg, the Highest dose/sachet [1] is given as 37.5 mg and the “ADI value/kg KG” value [2] is given as 15 mg mg/kg KG. For the same compound, the “masking of the salty taste of the ORS solution” value ([3]; listed as acesulfame-K) was “salty taste was perceived to a lesser extent; also recorded: masking was achieved” and the Sweetening power [4, 9] was 200.
For CC1=CC(=O)NS(=O)(=O)O1 [Acesulfame], the “fate in the human organism (splitting, metabolism, elimination)” value (“fate in the human organism” below) [5] is given as “eliminated unchanged via the kidneys”.
For CC1=CC(=O)NS(=O)(=O)O1.COC(=O)[C@H](Cc1ccccc1)NC(=O)[C@@H](N)CC(=O)O [Aspartame-acesulfame salt] (H-Asp-Phe-OMe), the “fate in the human organism” value [5] is listed as “split into its original components aspartame and acesulfame”, the “masking of the salty taste of the ORS solution” value [3] is listed as “salty taste was perceived to a lesser extent” and the Sweetening power [4, 9] is listed as 350.
For COC(=O)[C@H](Cc1ccccc1)NC(=O)[C@@H](N)CC(=O)O [Aspartame] (H-Asp-Phe-OMe), the “Highest daily dose/10 kg BW” value [1] is listed as 400 mg, the Highest dose/sachet [1] is listed as 100.0 mg and the “fate in the human organism” value [5] is listed as “metabolised in the body”. For the same compound, the “ADI value/kg KG” value [2] was 40 mg mg/kg KG, the “masking of the salty taste of the ORS solution” value [3] was “salty taste was perceived to a lesser extent; also recorded: masking was achieved” and the Sweetening power [4, 9] was 200.
For OC[C@H]1O[C@@H](O[C@H]2[C@H](O)[C@@H](O)C(O)O[C@@H]2CO)[C@H](O)[C@@H](O)[C@H]1O (stereo partly drawn) [Lactose], the Sweetening power [4, 10] is listed as 0.2.
In the case of OC[C@@H](O)[C@@H](O[C@H]1O[C@H](CO)[C@@H](O)[C@H](O)[C@H]1O)[C@H](O)[C@@H](O)CO [Maltitol], the “masking of the salty taste of the ORS solutions” value (“masking … of the ORS solutions” below) [6, 11] is given as “masking of the salty taste of the ORS solutions could substantially be achieved”, the “masking … of the ORS solutions” value [6, 12] is given as “substantially not salty, but very sour and not sweet” and the Sweetening power [4, 10] is given as 0.9.
For OC[C@@H](O)[C@@H](O)[C@H](O)[C@H](O)CO [Mannitol], the Sweetening power [4, 10] is listed as 0.4.
In the case of COc1ccc(CCC(=O)c2c(O)cc(O[C@@H]3O[C@H](CO)[C@@H](O)[C@H](O)[C@H]3O[C@@H]3O[C@@H](C)[C@H](O)[C@@H](O)[C@H]3O)cc2O)cc1O [Neohesperidin dihydrochalcone], the “ADI value/kg KG” value [2] is listed as 5 mg mg/kg KG and the Sweetening power [4, 9] is listed as 1000.
For COC(=O)[C@H](Cc1ccccc1)NC(=O)[C@H](CC(=O)O)NCCC(C)(C)C [Neotam], the Sweetening power ([4]; relative to saccharose) is given as “about 10,000” and the hydrolytic stability [7] is given as “better hydrolytic stability”.
For O=C1NS(=O)(=O)c2ccccc21.[Na] [Saccharin sodium], the “Highest daily dose/10 kg BW” value [1] is listed as 50 mg, the Highest dose/sachet [1] is listed as 12.5 mg and the “ADI value/kg KG” value [2] is listed as 5 mg mg/kg KG. For the same compound, the “promotion of the growth of bladder carcinomas” value (bladder carcinomas) was “suspected of promoting the growth of bladder carcinomas” and the Sweetening power [4, 9] was 500.
In the case of OC[C@H]1O[C@@](CO)(O[C@H]2O[C@H](CO)[C@@H](O)[C@H](O)[C@H]2O)[C@@H](O)[C@@H]1O [Saccharose], the “masking … of the ORS solutions” value [6, 11] is listed as “masking of the salty taste of the ORS solutions could substantially be achieved”, the “masking … of the ORS solutions” value [6, 12] is listed as “No masking of taste could be achieved” and the Sweetening power ([4]; relative to saccharose) is listed as “one”. The Sweetening power [4, 10] was 1.
In the case of O=S(=O)([O-])NC1CCCCC1.[Na+] [Sodium cyclamate], the “Highest daily dose/10 kg BW” value [1] is listed as 110 mg, the Highest dose/sachet [1] is listed as 27.5 mg and the “ADI value/kg KG” value [2] is listed as 11 mg mg/kg KG. For the same compound, the ADI value [2] was 11 mg per kg of bodyweight, the “masking of the salty taste of the ORS solution” value [3] was “complete masking of taste; also recorded: masking was achieved” and the Sweetening power [4, 9] was 30. The Sweetening power [4, 10] was 30 and the “ability to mask a salty taste” value [8] was “highest”.
For OC[C@@H](O)[C@@H](O)[C@H](O)[C@@H](O)CO [Sorbitol], the Sweetening power [4, 10] is listed as 0.6.
For OC[C@H]1O[C@H](O[C@]2(CCl)O[C@H](CCl)[C@@H](O)[C@@H]2O)[C@H](O)[C@@H](O)[C@H]1Cl [Sucralose], the “ADI value/kg KG” value [2] is listed as 15 mg mg/kg KG and the Sweetening power [4, 9] is listed as 600.
For Isomalt, the Sweetening power [4, 10] is listed as 0.45.
For Thaumatin, the “ADI value/kg KG” value [2] is given as 5 mg mg/kg KG, the “masking of the salty taste of the ORS solution” value [3] is given as “could also no longer be masked” and the Sweetening power [4, 9] is given as 3000.
